Publication PMC3575251, “Urease inhibitory activities of β-boswellic acid derivatives” (DARU Journal of Pharmaceutical Sciences, 2013)

Molecular target: T1, Jack bean urease (Canavalia ensiformis, UniProt P07374)
T1 construct: purchased Fluka Co, Switzerland
Assay: biochemical
Settings: for inhibition at 50 µg/mL: read-out: Percent of inhibition (50 μg/ml)
Description: For urease inhibition assays after addition of phosphate buffer pH = 6.8, sonication was performed for 3 min, followed by centrifugation and evaluating absorbance of upper solution in λ = 278 nm which is attributed to the urease. By using following equation […], where c is the concentration of solution (mol/L), b the Length of the UV cell, we can calculate the concentration of initially urease solution in this way. After appropriate dilution, the concentration of enzyme solution adjusted 2 mg/ml.
The assay mixture, containing 50 μl (2 mg/ml) of Jack-bean urease and 100 μl of different concentration of test compounds, which were dissolved in ethanol 20% previously, was added to 850 μl of 25mM urea and pre-incubated for 0.5 h in water bath at 37°C. The urease reaction was stopped after 30 min incubation by following procedure.
Urease activity was determined by measuring ammonia production using the indophenol method as described by Weatherburn. After pre-incubation, 500 μl of phenol reagent (1% w/v phenol and 0.005% w/v sodium nitroprusside) and 500 μl of alkali reagent (1% w/v NaOH and 0.075% active chloride NaOCl) were added to 100 μl of incubation mixture and kept at 37°C for 30 min.
The absorbance was measured at 625 nm. […] Percentage inhibitions were calculated using the formula (100 – (OD sample / OD control) × 100).
The concentration that provokes an inhibition halfway between the minimum and maximum response of each compound (relative IC50) was determined by monitoring the inhibition effect of various concentrations of compounds in the assay. The IC50 values were then calculated using GraphPad Prism 5 software.

T1 sequence (P07374 whole entry, looked up): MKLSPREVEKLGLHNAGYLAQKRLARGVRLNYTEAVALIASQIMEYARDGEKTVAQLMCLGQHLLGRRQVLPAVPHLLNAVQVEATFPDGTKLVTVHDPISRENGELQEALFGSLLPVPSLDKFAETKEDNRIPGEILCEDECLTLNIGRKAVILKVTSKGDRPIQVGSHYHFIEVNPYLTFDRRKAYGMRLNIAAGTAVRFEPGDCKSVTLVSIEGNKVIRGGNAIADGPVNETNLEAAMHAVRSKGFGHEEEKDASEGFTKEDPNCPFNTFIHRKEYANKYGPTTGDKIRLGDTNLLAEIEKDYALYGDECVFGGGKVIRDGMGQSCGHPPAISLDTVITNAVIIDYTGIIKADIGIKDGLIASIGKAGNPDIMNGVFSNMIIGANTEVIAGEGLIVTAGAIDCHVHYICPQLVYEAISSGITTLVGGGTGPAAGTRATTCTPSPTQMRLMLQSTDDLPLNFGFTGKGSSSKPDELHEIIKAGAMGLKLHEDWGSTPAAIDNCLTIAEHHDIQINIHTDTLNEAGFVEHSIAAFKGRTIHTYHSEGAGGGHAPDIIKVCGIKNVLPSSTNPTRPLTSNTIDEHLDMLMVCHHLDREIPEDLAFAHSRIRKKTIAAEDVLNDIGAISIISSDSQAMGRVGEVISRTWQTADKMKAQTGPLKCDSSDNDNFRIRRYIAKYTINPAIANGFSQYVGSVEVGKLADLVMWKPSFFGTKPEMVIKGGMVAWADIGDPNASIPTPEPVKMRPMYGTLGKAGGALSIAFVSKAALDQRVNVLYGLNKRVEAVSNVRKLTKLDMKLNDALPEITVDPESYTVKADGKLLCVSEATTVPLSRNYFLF

Compound	Percent of inhibition (50 μg/ml) (50 μg/ml test compound, Jack bean urease, 25 mM urea, 37°C) [%]	IC50 [µM]	inhibition at 50 µg/mL [%]
NC(N)=S [Thiourea, thiourea, reference compound]	88.0	–	–
C[C@H]1[C@H](C)CC[C@]2(C)CC[C@]3(C)C(=CC(=O)[C@@H]4[C@@]5(C)CC[C@@H](O)[C@](C)(C(=O)O)[C@@H]5CC[C@]43C)[C@H]12 [compound 4, 11-keto-β-boswellic acid]	–	85.23 ± 0.065	39.1
CC(=O)OC1CCC2(C)C(CCC3(C)C2C(O)C=C2C4C(C)C(C)CCC4(C)CCC23C)C1(C)C(=O)O (stereo not drawn) [compound 2, 3-O-acetyl-11-hydroxy-β-boswellic acid]	–	9.21 ± 0.069	56.2
CC(=O)O[C@@H]1CC[C@@]2(C)[C@@H](CC[C@]3(C)[C@@H]2C(=O)C=C2[C@@H]4[C@@H](C)[C@H](C)CC[C@]4(C)CC[C@]23C)[C@@]1(C)C(=O)O [compound 3, 3-O-acetyl-11-keto-β-boswellic acid]	–	16.34 ± 0.063	37.4
